Reference: paper PMC12096079, “m^6A modification is incorporated into bacterial mRNA without specific functional benefit” (Nucleic Acids Research, 2025)

Biological target: YafS (Escherichia coli, UniProt P75672)
Experiment: intrinsic tryptophan fluorescence quenching titration (ex […] nm, em […] nm)
Format: binding

YafS, sequence (P75672 whole entry): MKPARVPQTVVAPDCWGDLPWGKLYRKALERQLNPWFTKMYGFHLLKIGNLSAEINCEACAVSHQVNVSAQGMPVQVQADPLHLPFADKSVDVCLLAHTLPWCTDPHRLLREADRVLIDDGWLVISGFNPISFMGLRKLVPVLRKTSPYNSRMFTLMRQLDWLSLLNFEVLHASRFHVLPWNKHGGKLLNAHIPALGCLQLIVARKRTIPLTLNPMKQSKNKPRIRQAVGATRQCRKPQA

- Kd: 680 ± 100 nM
SMILES: C[S+](CC[C@H](N)C(=O)O)C[C@H]1O[C@@H](n2cnc3c(N)ncnc32)[C@H](O)[C@@H]1O (stereo partly shown) [SAM]
